In ChEMBL document CHEMBL1123097, “Structure-activity relationship in PAF-acether. 2. rac-1-O-Octadecyl-2-O-acetyl-3-O-[gamma-(dimethylamino)propyl]glycerol ” (J Med Chem, 1985) one finds Aggregation, EC50 and Activity data, which are given here for four compounds.

In general, EC50 refers to the concentration needed to bring the measured effect to its halfway point.

Assay [1] deals with Cavia porcellus. Description: Compound was evaluated in anesthetized guinea pigs, for the percentage drop in platelet counts between 2 min before and 1 min after injection at 33 ng/kg. It is filed as functional.
The species entered for assay [2] is Oryctolagus cuniculus. Nature of the assay: In vitro platelet aggregating activity in washed rabbit platelets. It is filed as functional.
The subject of assay [3] is Cavia porcellus. Description: Compound was evaluated in anesthetized guinea pigs, for the percentage drop in platelet counts between 2 min before and 1 min after injection at 520ng/kg. The class given is functional.
For assay [4], the system named is Cavia porcellus. Nature of the assay: Compound was evaluated in anesthetized guinea pigs, for the percentage drop in platelet counts between 2 min before and 1 min after injection. It is filed as functional.
For assay [5], the system named is Cavia porcellus. Nature of the assay: Compound was evaluated in anesthetized guinea pigs, for the percentage decrease of bronchoconstrictive activity. It is filed as functional, Lung. On the set-up: scale not given: the % may be the effect or the level left.
For assay [6], the species on record is Oryctolagus cuniculus. Nature of the assay: In vitro platelet aggregating activity in washed rabbit platelets; No lysis observed. The class given is functional.
Assay [7] deals with Cavia porcellus. Nature of the assay: Compound was evaluated in anesthetized guinea pigs, for the percentage drop in platelet counts between 2 min before and 1 min after injection at 66 ng/kg. The class given is functional.

The structures appear in SMILES notation.

In the assay with Cavia porcellus [1], `CCCCCCCCCCCCCCCCCCOC[C@H](COP(=O)([O-])OCC[N+](C)(C)C)OC(C)=O` registered an Aggregation of 48%. This compound also had an EC50 in the assay listed under Oryctolagus cuniculus [2] of 0.057 nM.
With `CCCCCCCCCCCCCCCCCCOCC(O)COCCC[N+](C)(C)C.[OH-]` (stereo not given), in the assay with Cavia porcellus [3], the Aggregation is given as 100%. Moreover, the EC50 in the assay filed under Oryctolagus cuniculus [2] was more than 4000 nM.
In the assay with Cavia porcellus [4], `CCCCCCCCCCCCCCCCCCOCC(COP(=O)([O-])OCC[N+](C)(C)C)OC(C)=O` (racemic) came in with an Aggregation of 0%. In the assay on Cavia porcellus [5], this compound yielded an Activity of 100%. In the assay listed under Oryctolagus cuniculus [2], this compound registered an EC50 of 0.22 nM.
Take `CCCCCCCCCCCCCCCCCCOCC(COCCCN(C)C)OC(C)=O.Cl` (stereo not given): it took 170 nM to reach a half-maximal effect in the assay listed under Oryctolagus cuniculus [6] (EC50). The Aggregation in the assay on Cavia porcellus [1] and in the assay with Cavia porcellus [7] was 0% each time.
